Assay results published in patent US4027038A, “Complement inhibitors” (priority 1976, dated 1977).

Assays:
[1] = molecular target: T1, activated human C1 (Homo sapiens, UniProt P09871); experiment: Test, Code 026 (C1 inhibitor); assay type: biochemical; conditions: In Vitro; serial two-fold dilution assay, higher well number indicates higher activity
T1 sequence (P09871 438-688 limits assumed): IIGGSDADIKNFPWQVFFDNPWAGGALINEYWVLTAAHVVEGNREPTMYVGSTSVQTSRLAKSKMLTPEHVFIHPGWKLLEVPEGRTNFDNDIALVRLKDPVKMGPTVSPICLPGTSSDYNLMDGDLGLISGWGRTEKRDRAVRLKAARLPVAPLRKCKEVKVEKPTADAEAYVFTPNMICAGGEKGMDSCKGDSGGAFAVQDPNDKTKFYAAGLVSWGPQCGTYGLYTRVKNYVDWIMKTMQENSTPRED
T1 sequence (P09871 16-437 limits assumed): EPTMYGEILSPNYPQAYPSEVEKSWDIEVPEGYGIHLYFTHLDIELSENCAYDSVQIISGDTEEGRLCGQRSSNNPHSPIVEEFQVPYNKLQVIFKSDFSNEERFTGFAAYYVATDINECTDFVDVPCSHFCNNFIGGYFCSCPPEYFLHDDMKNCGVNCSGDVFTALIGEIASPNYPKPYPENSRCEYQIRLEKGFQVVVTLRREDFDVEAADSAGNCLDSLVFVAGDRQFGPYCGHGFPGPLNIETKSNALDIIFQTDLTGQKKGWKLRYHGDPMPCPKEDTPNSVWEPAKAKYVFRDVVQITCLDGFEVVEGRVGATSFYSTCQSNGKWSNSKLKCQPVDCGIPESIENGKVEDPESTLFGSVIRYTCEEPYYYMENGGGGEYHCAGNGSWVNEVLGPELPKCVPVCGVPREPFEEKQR
Excerpt: (§1) This test measures the ability of activated human C1 to destroy fluid phase human C2 in the presence of C4 and appropriate dilutions of the test compound. An active inhibitor protects C2 from C1 and C4; (ii) Test, Code 035 (C3-C9 inhibitor). This test determines the ability of the late components of human complement (C3-C9 to lyse EAC 142 in the presence of appropriate dilutions of the test compound. An active inhibitor protects EAC 142 from lysis by human C3-C9; (ii) Test, Code 036 (C-Shunt inhibitor)-- In this test human erythrocytes rendered fragile are lysed in autologous serum via the shunt pathway activated by cobra venom factor in the presence of appropriate dilutions of the test compound. Inhibition of the shunt pathway results in failure of lysis; (iv) Forssman Vasculitis Test-- Here, the well known complement dependent lesion, Forssman vasculitis, is produced in guinea pigs by intradermal injection of rabbit anti-Forssman antiserum. The lesion is measured in terms of diameter, edema and hemorrhage and the extent to which a combined index of these is inhibited by prior intraperitoneal injection of the test compound at 200 mg/kg is then reported, unless otherwise stated; (v) Forssman Shock Test-- Lethal shock is produced in guinea pigs by an i.v. injection of anti-Forssman antiserum and the harmonic mean death time of treated guinea pigs is compared with that of simultaneous controls; (vi) Complement Level Reduction Test-- In this test, the above dosed guinea pigs, or other, are bled for serum and the complement level is determined in undiluted serum by the capillary tube method of U.S. Pat. No. 3,876,376 and compared to undosed control guinea pigs; and (vii) Cap 50 Test-- Here, appropriate amounts of the test compound are added to a pool of guinea pig serum in vitro, after which the undiluted serum capillary tube assay referred to above is run. The concentration of compound inhibiting 50% is reported.

[2] = system: late components of human complement (C3-C9); experiment: Test, Code 035 (C3-C9 inhibitor), lysis of EAC 142; assay type: biochemical; conditions: In Vitro; serial two-fold dilution assay, higher well number indicates higher activity
Excerpt: as §1

[3] = system: shunt pathway; experiment: Test, Code 036 (C-Shunt inhibitor), lysis of fragile human erythrocytes in autologous serum, cobra venom factor; assay type: biochemical; conditions: In Vitro; serial two-fold dilution assay, higher well number indicates higher activity
Excerpt: as §1

[4] = system: Forssman vasculitis; experiment: Forssman Vasculitis Test; conditions: In Vivo; guinea pigs; inhibition of combined index of lesion diameter, edema and hemorrhage; prior intraperitoneal injection at 200 mg/kg
Excerpt: as §1

[5] = system: complement level in undiluted serum; experiment: Complement Level Reduction Test; conditions: In Vivo; serum of dosed guinea pigs compared to undosed controls, capillary tube method
Excerpt: as §1

SMILES | 026 (C1 inhibitor), activity in wells [1] | 035 (C3-C9 inhibitor), activity in wells [2] | 036 (C-Shunt inhibitor), activity in wells [3] | Forssman [4] | % Reduction Complement [5]
O=C(Nc1cccc(C(=O)Nc2ccc3c(S(=O)(=O)[O-])cccc3c2S(=O)(=O)[O-])c1)Nc1cccc(C(=O)Nc2ccc3c(S(=O)(=O)[O-])cccc3c2S(=O)(=O)[O-])c1.[Na+].[Na+].[Na+].[Na+] [2,2'-[Ureylenebis(m-phenylenecarbonylimino)]di-1,5-naphthalenedisulfonic acid tetrasodium salt] | NEG | 1 wells | 1 wells | 10 | -18%
O=C(Nc1cccc(C(=O)Nc2ccc(S(=O)(=O)[O-])c3cccc(S(=O)(=O)[O-])c23)c1)Nc1cccc(C(=O)Nc2ccc(S(=O)(=O)[O-])c3cccc(S(=O)(=O)[O-])c23)c1.[Na+].[Na+].[Na+].[Na+] [4,4'-[Ureylenebis(m-phenylenecarbonylimino)]di-1,5-naphthalenedisulfonic acid tetrasodium salt] | 2 wells | NEG | NEG | 10 | -18%
O=C(Nc1cccc(C(=O)Nc2cc(S(=O)(=O)[O-])cc3cc(S(=O)(=O)[O-])ccc23)c1)Nc1cccc(C(=O)Nc2cc(S(=O)(=O)[O-])cc3cc(S(=O)(=O)[O-])ccc23)c1.[Na+].[Na+].[Na+].[Na+] [4,4'-[Ureylenebis(m-phenylenecarbonylimino)]di-2,7-naphthalenedisulfonic acid tetrasodium salt] | 3 wells | NEG | NEG | 0 | +4%
O=C(Nc1ccc(C(=O)Nc2ccc(S(=O)(=O)[O-])c3cccc(S(=O)(=O)[O-])c23)cc1)Nc1ccc(C(=O)Nc2ccc(S(=O)(=O)[O-])c3cccc(S(=O)(=O)[O-])c23)cc1.[Na+].[Na+].[Na+].[Na+] [4,4'-[Ureylenebis(p-phenylenecarbonylimino)]di-1,5-naphthalenedisulfonic acid tetrasodium salt] | NEG | NEG | NEG | 12 | +58%
O=C(Nc1cccc(C(=O)Nc2ccc3cc(S(=O)(=O)[O-])cc(S(=O)(=O)[O-])c3c2)c1)Nc1cccc(C(=O)Nc2ccc3cc(S(=O)(=O)[O-])cc(S(=O)(=O)[O-])c3c2)c1.[Na+].[Na+].[Na+].[Na+] [7,7'-[Ureylenebis(m-phenylenecarbonylimino)]di-1,3-naphthalenedisulfonic acid tetrasodium salt] | 3 wells | 1 wells | 1 wells | 8 | -33%
